The source made the active and inactive calls. The calls are words filed in the database; no cut-off is given here.
Key:
NCI/ADR-RES [1] = test: Induction of apoptosis in human NCI-ADR-RES cells assessed as late apoptotic cells at 3 uM incubated for 24 hrs by Annexin V-FITC and DAPI staining based flow cytometry (Rvb= 0.66 %); type: functional
NCI/ADR-RES [2] = test: Induction of apoptosis in human NCI-ADR-RES cells assessed as late apoptotic cells at 8 uM incubated for 24 hrs in presence of doxorubicin by Annexin V-FITC and DAPI staining based flow cytometry (Rvb= 0.66 %); type: functional
[3] = Cytotoxicity against mouse MPC-5 cells assessed as inhibition of cell growth at 50 uM incubated for 48 hrs by MTT assay; type: toxicity, cell-based; settings: mpc-5, 48 h
NCI/ADR-RES [4] = test: Induction of apoptosis in human NCI-ADR-RES cells assessed as necrotic cells at 8 uM incubated for 48 hrs in presence of doxorubicin by Annexin V-FITC and DAPI staining based flow cytometry (Rvb= 0.55 %); type: functional
NCI/ADR-RES [5] = test: Induction of apoptosis in human NCI-ADR-RES cells assessed as early apoptotic cells at 8 uM incubated for 24 hrs in presence of doxorubicin by Annexin V-FITC and DAPI staining based flow cytometry (Rvb= 0.89 %); type: functional
NCI/ADR-RES [6] = test: Induction of apoptosis in human NCI-ADR-RES cells assessed as late apoptotic cells at 8 uM incubated for 48 hrs in presence of doxorubicin by Annexin V-FITC and DAPI staining based flow cytometry (Rvb= 0.66 %); type: functional
MCF7 [7] = test: Antiproliferative activity against human MCF7 cells assessed as inhibition of cell growth at 50 uM incubated for 48 hrs by MTT assay; type: functional, cell-based
NCI/ADR-RES [8] = test: Reversal fold, ratio of doxorubicin IC50 to doxorubicin IC50 in presence of 10 uM test compound for reversal of P-gp-mediated multidrug resistance in human NCI-ADR-RES cells incubated for 48 hrs by MTT assay; type: functional
NCI-ADR-RES [9] = test: Inhibition of PI3K/AKT signaling pathway in human NCI-ADR-RES cells assessed as decrease in PI3K phosphorylation at 3 uM incubated for 24 to 48 hrs in presence of doxorubicin by Western blot analysis; type: cell-based; settings: time 24-48 hrs
NCI/ADR-RES [10] = test: Reversal of P-gp-mediated multidrug resistance in human NCI-ADR-RES cells assessed as change in ABCB1 expression level at 1 to 10 uM incubated for 48 hrs by Western blot analysis; type: functional, cell-based; settings: dose 1-10 µM
NCI/ADR-RES [11] = test: Induction of apoptosis in human NCI-ADR-RES cells assessed as early apoptotic cells at 3 uM incubated for 48 hrs by Annexin V-FITC and DAPI staining based flow cytometry (Rvb= 0.89 %); type: functional
HEK-293T = test: Cytotoxicity against human HEK293T cells assessed as cell survival rate at 10 uM incubated for 48 hrs by MTT assay; type: toxicity, cell-based
A549/TR = test: Antiproliferative activity against human Taxol resistant A549 cells assessed as inhibition of cell growth at 50 uM incubated for 48 hrs by MTT assay; type: functional, cell-based
NCI/ADR-RES [12] = test: Induction of apoptosis in human NCI-ADR-RES cells assessed as late apoptotic cells at 3 uM incubated for 48 hrs by Annexin V-FITC and DAPI staining based flow cytometry (Rvb= 0.66 %); type: functional
NCI/ADR-RES [13] = test: Induction of apoptosis in human NCI-ADR-RES cells assessed as early apoptotic cells at 8 uM incubated for 48 hrs in presence of doxorubicin by Annexin V-FITC and DAPI staining based flow cytometry (Rvb= 0.89 %); type: functional
NCI-ADR-RES [14] = test: Inhibition of PI3K/AKT signaling pathway in human NCI-ADR-RES cells assessed as decrease in Bcl-2 level at 3 uM incubated for 24 to 48 hrs in presence of doxorubicin by Western blot analysis; type: cell-based; settings: time 24-48 hrs
P-gp = test: Therapeutic index, ratio of IC50 for cytotoxicity against human HEK293T cells to EC50 for reversal of P-gp-mediated multidrug resistance in human NCI-ADR-RES cells; type: toxicity, cell-based; settings: read-out: Ratio IC50/EC50
NCI/ADR-RES [15] = test: Induction of apoptosis in human NCI-ADR-RES cells assessed as necrotic cells at 3 uM incubated for 24 hrs by Annexin V-FITC and DAPI staining based flow cytometry (Rvb= 0.55 %); type: functional
[16] = Cytotoxicity against human HEK293T cells assessed as reduction in cell viability incubated for 48 hrs by MTT assay; type: toxicity, cell-based, HEK-293T
NCI-ADR-RES [17] = test: Inhibition of PI3K/AKT signaling pathway in human NCI-ADR-RES cells assessed as increase in cleaved PARP level at 3 uM incubated for 24 to 48 hrs in presence of doxorubicin by Western blot analysis; type: cell-based; settings: time 24-48 hrs
NCI/ADR-RES [18] = test: Antiproliferative activity against human multidrug resistant NCI-ADR-RES cells assessed as inhibition of cell growth at 50 uM incubated for 48 hrs by MTT assay; type: functional, cell-based
HCT-8 = test: Antiproliferative activity against human HCT-8 cells assessed as inhibition of cell growth at 50 uM incubated for 48 hrs by MTT assay; type: functional, cell-based
NCI/ADR-RES [19] = test: Induction of apoptosis in human NCI-ADR-RES cells assessed as early apoptotic cells at 3 uM incubated for 24 hrs by Annexin V-FITC and DAPI staining based flow cytometry (Rvb= 0.89 %); type: functional
NCI/ADR-RES [20] = test: Induction of apoptosis in human NCI-ADR-RES cells assessed as viable cells at 8 uM incubated for 48 hrs in presence of doxorubicin by Annexin V-FITC and DAPI staining based flow cytometry (Rvb= 97.9 %); type: functional; settings: read-out: Activity
NCI-ADR-RES [21] = test: Inhibition of PI3K/AKT signaling pathway in human NCI-ADR-RES cells assessed as decrease in Bcl-xL level at 3 uM incubated for 24 to 48 hrs in presence of doxorubicin by Western blot analysis; type: cell-based; settings: time 24-48 hrs
NCI/ADR-RES [22] = test: Induction of apoptosis in human NCI-ADR-RES cells assessed as necrotic cells at 8 uM incubated for 24 hrs in presence of doxorubicin by Annexin V-FITC and DAPI staining based flow cytometry (Rvb= 0.55 %); type: functional
NCI/ADR-RES [23] = test: Induction of apoptosis in human NCI-ADR-RES cells assessed as necrotic cells at 3 uM incubated for 48 hrs by Annexin V-FITC and DAPI staining based flow cytometry (Rvb= 0.55 %); type: functional
NCI/ADR-RES [24] = test: Induction of apoptosis in human NCI-ADR-RES cells assessed as viable cells at 8 uM incubated for 24 hrs in presence of doxorubicin by Annexin V-FITC and DAPI staining based flow cytometry (Rvb= 97.9 %); type: functional; settings: read-out: Activity
MCF7 [25] = test: Antiproliferative activity against human MCF7 cells assessed as reduction in cell viability incubated for 48 hrs by MTT assay; type: functional, cell-based; settings: MCF7, 48 h, read-out: IC50
NCI-ADR-RES [26] = test: Inhibition of PI3K/AKT signaling pathway in human NCI-ADR-RES cells assessed as decrease in AKT phosphorylation at 3 uM incubated for 24 to 48 hrs in presence of doxorubicin by Western blot analysis; type: cell-based; settings: time 24-48 hrs
L02 = test: Cytotoxicity against human L02 cells assessed as inhibition of cell growth at 50 uM incubated for 48 hrs by MTT assay; type: toxicity, cell-based; settings: l02, 48 h
NCI/ADR-RES [27] = test: Reversal of P-gp-mediated multidrug resistance in human NCI-ADR-RES cells assessed as change in ABCB1 expression level at 1 to 10 uM incubated for 48 hrs in presence of doxorubicin by Western blot analysis; type: functional, cell-based; settings: dose 1-10 µM

IC50 (MCF7 [25]): > 100 µM
SMILES: C=C1[C@H](OC(C)=O)[C@@H](OC(C)=O)[C@@H](OC(C)=O)C(C)(C)/C=C/[C@H](C)[C@H](OC(=O)c2ccccc2)[C@@]2(O)C[C@@](C)(OC(=O)C(C)(C)C)[C@H](OC(C)=O)[C@@H]2[C@H]1OCC(C)C
Activity (NCI/ADR-RES [1]): 0.73% | Activity (NCI/ADR-RES [2]): 1.56% | Activity [3]: Non-Toxic | Activity (NCI/ADR-RES [4]): 10.7% | Activity (NCI/ADR-RES [5]): 10.2% | Activity (NCI/ADR-RES [6]): 8.03% | Activity (MCF7 [7]): inactive | Ratio IC50 (NCI/ADR-RES [8]): 116.6 | inhibition (NCI-ADR-RES [9]): Active | Activity (NCI/ADR-RES [10]): inactive | Activity (NCI/ADR-RES [11]): 0.69% | Activity (HEK-293T): Non-Toxic | Activity (A549/TR): inactive | Activity (NCI/ADR-RES [12]): 0.73% | Activity (NCI/ADR-RES [13]): 16.4% | inhibition (NCI-ADR-RES [14]): Active | selectivity ratio (P-gp): 309 | Activity (NCI/ADR-RES [15]): 1.06% | IC50 at 48 h [16]: 56.3 µM | inhibition (NCI-ADR-RES [17]): Active | Activity (NCI/ADR-RES [18]): inactive | Activity (HCT-8): inactive | Activity (NCI/ADR-RES [19]): 0.67% | viability at 8 µM (NCI/ADR-RES [20]): 65% | inhibition (NCI-ADR-RES [21]): Active | Activity (NCI/ADR-RES [22]): 0.24% | Activity (NCI/ADR-RES [23]): 0.43% | viability at 8 µM (NCI/ADR-RES [24]): 87.1% | inhibition (NCI-ADR-RES [26]): Active | Activity (L02): Non-Toxic | Activity (NCI/ADR-RES [27]): Active
